Measurements as given in PMC7311426, “An amphipathic peptide with antibiotic activity against multidrug-resistant Gram-negative bacteria” (Nature Communications, 2020).
In brackets after ≈: the same amount, converted by molar mass.

Tested on: P. aeruginosa
Assay: microbe, parasite or virus in culture
Procedure, shortened: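 Broth microdilution in MHB, 2-fold 12-point series from 128 or 64 down to 0.06 or 0.03 μg mL^−1, 5 × 10^5 CFU mL^−1. Extra runs in CAMHB per CLSI and in MHB with 1% agarose; n ≥ 6.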

With `CN(C)c1cc(NC(=O)CNC(C)(C)C)c(O)c2c1C[C@H]1C[C@H]3[C@H](N(C)C)C(O)=C(C(N)=O)C(=O)[C@@]3(O)C(O)=C1C2=O` [TIG] the “MIC, broth microdilution” value (P. aeruginosa ATCC 27853 spontaneous mutant, AA139 selection 8X, plate 1, colony 5, drug-free passage 5) was 8, 8 µg/mL, the “MIC, broth microdilution” value (P. aeruginosa UNT 138-1 parent strain not exposed to drug) was 8 µg/mL (≈ 13.7 µM) and the “MIC, broth microdilution” value (P. aeruginosa UNT 138-1 spontaneous mutant, AA139 selection 4X, plate 1, colony 1, drug-free passage 1) was 16, 16 µg/mL. The “MIC, broth microdilution” value (P. aeruginosa UNT 138-1 spontaneous mutant, AA139 selection 4X, plate 1, colony 1, drug-free passage 5) was 16, 16 µg/mL, the “MIC, broth microdilution” value (P. aeruginosa UNT 138-1 spontaneous mutant, AA139 selection 4X, plate 1, colony 2, drug-free passage 1) was 16, 16 µg/mL and the “MIC, broth microdilution” value (P. aeruginosa UNT 138-1 spontaneous mutant, AA139 selection 4X, plate 1, colony 2, drug-free passage 5) was 16, 16 µg/mL. The “MIC, broth microdilution” value (P. aeruginosa UNT 138-1 spontaneous mutant, AA139 selection 4X, plate 1, colony 3, drug-free passage 1) was 16, 16 µg/mL, the “MIC, broth microdilution” value (P. aeruginosa UNT 138-1 spontaneous mutant, AA139 selection 4X, plate 1, colony 3, drug-free passage 5) was 16, 16 µg/mL and the “MIC, broth microdilution” value (P. aeruginosa UNT 138-1 spontaneous mutant, AA139 selection 4X, plate 1, colony 4, drug-free passage 1) was 16, 16 µg/mL. For the same molecule, the “MIC, broth microdilution” value (P. aeruginosa UNT 138-1 spontaneous mutant, AA139 selection 4X, plate 1, colony 4, drug-free passage 5) was 16, 16 µg/mL, the “MIC, broth microdilution” value (P. aeruginosa UNT 138-1 spontaneous mutant, AA139 selection 4X, plate 1, colony 5, drug-free passage 1) was 16, 16 µg/mL and the “MIC, broth microdilution” value (P. aeruginosa UNT 138-1 spontaneous mutant, AA139 selection 4X, plate 1, colony 5, drug-free passage 5) was 16, 16 µg/mL. For the same molecule, the “MIC, broth microdilution” value (P. aeruginosa UNT 138-1 spontaneous mutant, AA139 selection 4X, plate 1, colony 6, drug-free passage 1) was 16, 16 µg/mL, the “MIC, broth microdilution” value (P. aeruginosa UNT 138-1 spontaneous mutant, AA139 selection 4X, plate 1, colony 6, drug-free passage 5) was 16, 16 µg/mL and the “MIC, broth microdilution” value (P. aeruginosa UNT 138-1 spontaneous mutant, AA139 selection 4X, plate 1, colony 7, drug-free passage 1) was 16, 16 µg/mL. The “MIC, broth microdilution” value (P. aeruginosa UNT 138-1 spontaneous mutant, AA139 selection 4X, plate 1, colony 7, drug-free passage 5) was 16, 16 µg/mL, the “MIC, broth microdilution” value (P. aeruginosa UNT 138-1 spontaneous mutant, AA139 selection 4X, plate 2, colony 1, drug-free passage 1) was 16, 16 µg/mL and the “MIC, broth microdilution” value (P. aeruginosa UNT 138-1 spontaneous mutant, AA139 selection 4X, plate 2, colony 1, drug-free passage 5) was 16, 16 µg/mL. For the same molecule, the “MIC, broth microdilution” value (P. aeruginosa UNT 138-1 spontaneous mutant, AA139 selection 4X, plate 2, colony 2, drug-free passage 1) was 16, 16 µg/mL, the “MIC, broth microdilution” value (P. aeruginosa UNT 138-1 spontaneous mutant, AA139 selection 4X, plate 2, colony 2, drug-free passage 5) was 16, 16 µg/mL and the “MIC, broth microdilution” value (P. aeruginosa UNT 138-1 spontaneous mutant, AA139 selection 4X, plate 2, colony 3, drug-free passage 1) was 16, 16 µg/mL. The “MIC, broth microdilution” value (P. aeruginosa UNT 138-1 spontaneous mutant, AA139 selection 4X, plate 2, colony 3, drug-free passage 5) was 16, 16 µg/mL, the “MIC, broth microdilution” value (P. aeruginosa UNT 138-1 spontaneous mutant, AA139 selection 4X, plate 2, colony 4, drug-free passage 1) was 16, 16 µg/mL and the “MIC, broth microdilution” value (P. aeruginosa UNT 138-1 spontaneous mutant, AA139 selection 4X, plate 2, colony 4, drug-free passage 5) was 16, 16 µg/mL. The “MIC, broth microdilution” value (P. aeruginosa UNT 138-1 spontaneous mutant, AA139 selection 4X, plate 2, colony 5, drug-free passage 1) was 16, 16 µg/mL, the “MIC, broth microdilution” value (P. aeruginosa UNT 138-1 spontaneous mutant, AA139 selection 4X, plate 2, colony 5, drug-free passage 5) was 16, 16 µg/mL and the “MIC, broth microdilution” value (P. aeruginosa UNT 138-1 spontaneous mutant, AA139 selection 4X, plate 2, colony 6, drug-free passage 1) was 16, 16 µg/mL. For the same molecule, the “MIC, broth microdilution” value (P. aeruginosa UNT 138-1 spontaneous mutant, AA139 selection 4X, plate 2, colony 6, drug-free passage 5) was 16, 16 µg/mL, the “MIC, broth microdilution” value (P. aeruginosa UNT 138-1 spontaneous mutant, AA139 selection 4X, plate 2, colony 7, drug-free passage 1) was 8 µg/mL (≈ 13.7 µM) and the “MIC, broth microdilution” value (P. aeruginosa UNT 138-1 spontaneous mutant, AA139 selection 4X, plate 2, colony 7, drug-free passage 5) was 16 µg/mL (≈ 27.3 µM). The “MIC, broth microdilution” value (P. aeruginosa UNT 138-1 spontaneous mutant, AA139 selection 8X, plate 1, colony 1, drug-free passage 1) was 8 µg/mL (≈ 13.7 µM), the “MIC, broth microdilution” value (P. aeruginosa UNT 138-1 spontaneous mutant, AA139 selection 8X, plate 1, colony 1, drug-free passage 5) was 16 µg/mL (≈ 27.3 µM) and the “MIC, broth microdilution” value (P. aeruginosa UNT 138-1 spontaneous mutant, AA139 selection 8X, plate 1, colony 2, drug-free passage 1) was 8 µg/mL (≈ 13.7 µM). For the same molecule, the “MIC, broth microdilution” value (P. aeruginosa UNT 138-1 spontaneous mutant, AA139 selection 8X, plate 1, colony 2, drug-free passage 5) was 16 µg/mL (≈ 27.3 µM), the “MIC, broth microdilution” value (P. aeruginosa UNT 138-1 spontaneous mutant, AA139 selection 8X, plate 1, colony 3, drug-free passage 1) was 8 µg/mL (≈ 13.7 µM) and the “MIC, broth microdilution” value (P. aeruginosa UNT 138-1 spontaneous mutant, AA139 selection 8X, plate 1, colony 3, drug-free passage 5) was 16 µg/mL (≈ 27.3 µM). The “MIC, broth microdilution” value (P. aeruginosa UNT 138-1 spontaneous mutant, AA139 selection 8X, plate 1, colony 4, drug-free passage 1) was 8 µg/mL (≈ 13.7 µM), the “MIC, broth microdilution” value (P. aeruginosa UNT 138-1 spontaneous mutant, AA139 selection 8X, plate 1, colony 4, drug-free passage 5) was 16 µg/mL (≈ 27.3 µM) and the “MIC, broth microdilution” value (P. aeruginosa UNT 138-1 spontaneous mutant, AA139 selection 8X, plate 1, colony 5, drug-free passage 1) was 16, 16 µg/mL. For the same molecule, the “MIC, broth microdilution” value (P. aeruginosa UNT 138-1 spontaneous mutant, AA139 selection 8X, plate 1, colony 5, drug-free passage 5) was 16, 16 µg/mL, the “MIC, broth microdilution” value (P. aeruginosa UNT 138-1 spontaneous mutant, AA139 selection 8X, plate 2, colony 1, drug-free passage 1) was 16, 16 µg/mL and the “MIC, broth microdilution” value (P. aeruginosa UNT 138-1 spontaneous mutant, AA139 selection 8X, plate 2, colony 1, drug-free passage 5) was 16, 16 µg/mL.
